Data from patent publication US4208514A, “4(3H)-Oxobenzo-2,1,3-thiadiazine-2,2-dioxides” (The Dow Chemical Company, priority 1976, dated 1980).

Key:
Assay type in all cases: in vivo
Jimson Weed = assay: Selective post-emergent greenhouse test, Jimson Weed; conditions: post-emergence, 336 h, 2 weeks; for pest or weed control at 358.672 g/ha: 0.32 lbs/acre; for pest or weed control at 706.135 g/ha: 0.63 lbs/acre
Source text: (§1) So as to illustrate clearly the phytotoxic properties of the various active ingredients of the present invention, a group of controlled greenhouse experiments is described below.
(§2) Various species of plants, both broadleaf weeds and valuable crops, were planted in beds of good agricultural soil in a greenhouse. After the plants had emerged and grown to a height of about 2-6 inches, a portion of the plants were sprayed with an aqueous mixture, made by mixing a selected active ingredient and emulsifier or dispersant with water to provide solution containing 250 or 125 ppm active ingredient, employing sufficient amounts of the treating composition to provide low post emergent application rates of about 0.63 or 0.32 pounds per acre. Other portions of the plants were left untreated to serve as controls. In each test the active ingredient was a 3-methylethyl-1H-2,1,3-benzothiadiazin-4(3H)-one-2,2-dioxide having a substituent in the one position according to the invention.
(§3) After a period of 2 weeks the selective effect of the test ingredient on the plants was evaluated by a comparison with the control group of plants.

Velvet Leaf = assay: Selective post-emergent greenhouse test, Velvet Leaf; conditions: for pest or weed control at 358.672 g/ha / pest or weed control at 706.135 g/ha: post-emergence, 336 h, 2 weeks; for pest or weed control at 358.672 g/ha: 0.32 lbs/acre; for pest or weed control at 706.135 g/ha: 0.63 lbs/acre
Source text: as §1, §2, §3

Soybean = assay: Selective post-emergent greenhouse test, Soybean (crop injury); conditions: Glycine max, post-emergence, 336 h, 2 weeks, read-out: % Control Soybean; for plant injury at 358.672 g/ha: 0.32 lbs/acre; for plant injury at 706.135 g/ha: 0.63 lbs/acre
Source text: as §1, §2, §3

Cotton = assay: Selective post-emergent greenhouse test, Cotton (crop injury); conditions: for plant injury at 358.672 g/ha / plant injury at 706.135 g/ha: Gossypium hirsutum, post-emergence, 336 h, 2 weeks, crop, read-out: % Control Cotton; for plant injury at 358.672 g/ha: 0.32 lbs/acre; for plant injury at 706.135 g/ha: 0.63 lbs/acre
Source text: as §1, §2, §3

| SMILES | pest or weed control at 358.672 g/ha (Jimson Weed) [%] | pest or weed control at 706.135 g/ha (Jimson Weed) [%] | pest or weed control at 358.672 g/ha (Velvet Leaf) [%] | pest or weed control at 706.135 g/ha (Velvet Leaf) [%] | plant injury at 358.672 g/ha (Soybean) [%] | plant injury at 706.135 g/ha (Soybean) [%] | plant injury at 358.672 g/ha (Cotton; post-emergent) [%] | plant injury at 706.135 g/ha (Cotton; post-emergent) [%] | control of velvet leaf (Velvet Leaf; comparison test, about 0.32 pounds per acre) | damage to cotton at dosage rates at which velvet leaf is controlled (Cotton; comparison compound, in general) | control of cotton (Cotton; comparison test, about 0.32 pounds per acre, post-emergent) [%] |
| --- | --- | --- | --- | --- | --- | --- | --- | --- | --- | --- | --- |
| CC(C)N1C(=O)c2ccccc2N(C(=O)CC(C)(C)C)S1(=O)=O [COCH2 C(CH3)3, 1H-2,1,3-Benzothiadiazin-4(3H)-one: 1-(3,3-dimethyl-1-oxobutyl)-3-(1-methylethyl)-; 2,2-dioxide] | 90 | 100 | 100 | 100 | 0 | 0 | 0 | 0 |  |  |  |
| CCC(C)OC(=O)N1c2ccccc2C(=O)N(C(C)C)S1(=O)=O (stereo not shown) | 100 | 100 | 100 | 100 | 0 | 0 | 30 | 30 |  |  |  |
| CC(C)N1C(=O)c2ccccc2N(C(=O)C2CCCCC2)S1(=O)=O | 100 | 100 | 0 | 100 | 0 | 0 | 0 | 100 |  |  |  |
| CCC(=O)N1c2ccccc2C(=O)N(C(C)C)S1(=O)=O [COC2 H5, 1H-2,1,3-Benzothiadiazin-4(3H)-one: 3-(1-methylethyl)-1-(1-oxopropyl)-; 2,2-dioxide] |  |  | 100 | 100 | 0 | 0 | 0 | 100 |  |  |  |
| CCOC(=O)N1c2ccccc2C(=O)N(C(C)C)S1(=O)=O [CO2 CH2 CH3] | 100 | 100 | 70 | 100 | 0 | 0 | 10 | 30 |  |  |  |
| CC(C)N1C(=O)c2ccccc2N(S(=O)(=O)N(C)C)S1(=O)=O [SO2 N(CH3)2, 1H-2,1,3-Benzothiadiazin-4-(3H)-one; 1-Dimethylsulfamoyl-3-(1-methylethyl)-2,2-dioxide] |  | 100 | 70 | 50 | 0 | 0 | 5 | 70 |  |  |  |
| CCCCCCCCCCCC(=O)N1c2ccccc2C(=O)N(C(C)C)S1(=O)=O [CO(CH2)10 CH3, 3-(1-Methylethyl)-1-(1-oxododecanyl)-1H-2,1,3-benzothiadiazin-4 (3H)-one-2,2-dioxide] | 100 | 100 | 60 | 70 | 0 | 0 | 0 | 20 |  |  |  |
| CC(C)N1C(=O)c2ccccc2N(C(=O)N(C)C)S1(=O)=O [CON(CH3)2, 1H-2,1,3-Benzothiadiazine-1-carboxamide: N,N-Dimethyl-3,4-dihydro-3-(1-methylethyl)-4-oxo-, 2,2-dioxide] | 100 | 100 | 40 | 95 | 0 | 0 |  | 40 |  |  |  |
| CC(C)N1C(=O)c2ccccc2NS1(=O)=O [3-methylethyl-1H-2,1,3-benzothiadiazin-4(3H)-one-2,2-dioixde, reference compound] |  |  |  |  |  |  |  |  | control of velvet leaf was obtained | cotton suffers substantial damage | 90 |
| CC(Br)C(=O)N1c2ccccc2C(=O)N(C(C)C)S1(=O)=O (stereo not shown) [COCHBrCH3, 1H-2,1,3-Benzothiadiazin-4(3H)-one: 1-(2-Bromo-1-oxopropyl)-3-(1-methylethyl)-; 2,2-dioxide] | 100 | 100 | 100 | 100 | 0 | 0 | 0 | 4 |  |  |  |
| CC(C)COC(=O)N1c2ccccc2C(=O)N(C(C)C)S1(=O)=O [CO2 CH2 CH(CH3)2, 1H-2,1,3-Benzothiadiazine-1-carboxylic Acid: 3,4-Dihydro-3-(1-methylethyl)-4-oxo-, 2-Methylpropyl Ester, 2,2-Dioxide] | 100 | 100 | 100 | 100 | 10 | 10 | 0 | 0 |  |  |  |
| COC(=O)CCC(=O)N1c2ccccc2C(=O)N(C(C)C)S1(=O)=O [drawing 13] | 100 | 100 | 70 | 100 | 0 | 0 | 0 | 60 |  |  |  |
| CCN(CC)C(=O)N1c2ccccc2C(=O)N(C(C)C)S1(=O)=O [CON(C2 H5)2] | 100 | 100 | 0 | 20 | 0 | 0 | 10 | 90 |  |  |  |
| CC(C)N1C(=O)c2ccccc2N(S(=O)(=O)c2ccccc2)S1(=O)=O | 100 | 100 | 0 | 30 | 0 | 0 | 0 | 0 |  |  |  |
| CC(C)N1C(=O)c2ccccc2N(C(=O)c2ccccc2)S1(=O)=O | 80 | 80 | 0 | 0 | 0 | 0 | 0 | 0 |  |  |  |
| CC(C)N1C(=O)c2ccccc2N(C(=O)OCCCl)S1(=O)=O [CO2 CH2 CH2 Cl] | 80 | 100 | 95 | 100 | 0 | 0 | 10 | 10 |  |  |  |
| CC(C)N1C(=O)c2ccccc2N(C(=O)C(C)(C)C)S1(=O)=O [COC(CH3)3, 3-(1-Methylethyl)-1-(2,2-dimethyl-1-oxopropyl)-1H-2,1,3- -benzothiadiazin-4(3H)-one-2,2-dioxide] | 70 | 100 | 80 | 100 | 0 | 0 | 0 | 40 |  |  |  |
